Assay results reported in patent publication US10501449B2 (priority 2018, dated 2019).

Each molecule was assayed against hROMK (human Kir1.1) (Homo sapiens (Human), UniProt P48048) (assay: cell-based). Conditions: CHO T-Rex hROMK stable cell line; thallium flux; 10-point concentration response curve; read-out: Human ROMK Th Flux IC50.
Sequence of hROMK (human Kir1.1) (P48048 whole entry): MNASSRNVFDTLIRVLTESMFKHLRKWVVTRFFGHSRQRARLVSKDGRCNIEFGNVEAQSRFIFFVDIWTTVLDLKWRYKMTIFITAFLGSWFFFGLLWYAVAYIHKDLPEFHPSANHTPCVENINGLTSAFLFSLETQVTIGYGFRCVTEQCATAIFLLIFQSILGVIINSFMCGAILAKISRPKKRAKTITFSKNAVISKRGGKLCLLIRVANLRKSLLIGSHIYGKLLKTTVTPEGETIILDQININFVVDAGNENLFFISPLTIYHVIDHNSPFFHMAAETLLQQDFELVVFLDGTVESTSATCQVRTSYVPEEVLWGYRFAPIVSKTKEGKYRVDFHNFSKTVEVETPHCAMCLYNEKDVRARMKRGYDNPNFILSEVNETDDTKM
`Cc1ncc(-n2cc(CN3C[C@@H](c4ccc5c(c4C)COC5=O)N[C@@H](C)C3)cn2)cn1` [Example 209-I, 4-methyl-5-((2R,6S)-6-methyl-4-((1-(2-methylpyrimidin-5-yl)-1H-pyrazol-4-yl)methyl)piperazin-2-yl)isobenzofuran-1(3H)-one] gave an IC50 of 100 nM. With `Cc1c([C@@H]2CN(Cc3cnn(-c4cnccn4)c3)CCO2)ccc2c1COC2=O` [Example 39-I, (R)-4-methyl-5-(4-((1-(pyrazin-2-yl)-1H-pyrazol-4-yl)methyl)morpholin-2-yl)isobenzo-furan-1(3H)-one] the IC50 was 770 nM. Molecule `Cc1cc(-n2cc(CN3C[C@@H](c4ccc5c(c4C)COC5=O)N[C@@H](C)C3)oc2=O)ncc1C#N` [Example 117-I, 4-methyl-6-(5-(((3S,5R)-3-methyl-5-(4-methyl-1-oxo-1,3-dihydroisobenzofuran-5-yl)piperazin-1-yl)methyl)-2-oxooxazol-3(2H)-yl)nicotinonitrile] has an IC50 of 34 nM. In the case of `Cc1c([C@@H]2CN(C(=O)c3cnc(-c4ccc5oc(=O)n(C)c5c4)s3)CCO2)ccc2c1COC2=O` [Example 20-I, (R)-3-methyl-5-(5-(2-(4-methyl-1-oxo-1,3-dihydroisobenzofuran-5-yl)morpholine-4-carbonyl)thiazol-2-yl)benzo[d]oxazol-2(3H)-one], the IC50 is reported as 490 nM. `Cc1c([C@@H]2CN(Cc3cn(-c4ccnc(C(F)F)n4)cn3)C[C@H](C)N2)ccc2c1COC2=O` [Example 271-I, 5-((2R,6S)-4-((1-(2-(difluoromethyl)pyrimidin-4-yl)-1H-imidazol-4-yl)methyl)-6-methylpiperazin-2-yl)-4-methylisobenzofuran-1(3H)-one] showed an IC50 of 100 nM. For `CC(=O)NC1CCN(Cc2cnn(-c3cc(C)c(C#N)cn3)c2)CC1c1ccc2c(c1C)COC2=O` (single isomer, unassigned) [Example 248-I, N-(1-((1-(5-cyano-4-methylpyridin-2-yl)-1H-pyrazol-4-yl)methyl)-3-(4-methyl-1-oxo-1,3-dihydroisobenzofuran-5-yl)piperidin-4-yl)acetamide], the IC50 was 1500 nM. `CC(=O)NC1CC(c2ccc3c(c2C)COC3=O)CN(Cc2cnn(-c3cc(C)c(C#N)cn3)c2)C1` (single isomer, unassigned) [Example 257-I, N-(1-((1-(5-cyano-4-mehtylpyridin-2-yl)-1H-pyrazol-4-yl)methyl)-5-(4-methyl-1-oxo-1,3-dihydroisobenzofuran-5-yl)piperidin-3-yl)acetamide] was tested, and the IC50 was 1400 nM. For `Cc1ccc(-n2cnc(CN3C[C@@H](c4ccc5c(c4C)COC5=O)N[C@@H](C)C3)c2)cn1` [Example 180-I, 4-methyl-5-((2R,6S)-6-methyl-4-((1-(6-methylpyridin-3-yl)-1H-imidazol-4-yl)methyl)piperazin-2-yl)isobenzofuran-1(3H)-one], the IC50 was 77 nM. In the case of `Cc1c([C@@H]2CN(Cc3cnn(-c4cc(F)c5oc(=O)n(C)c5c4)c3)CCN2)ccc2c1COC2=O` [Example 55-I, (R)-7-fluoro-3-methyl-5-(4-((3-(4-methyl-1-oxo-1,3-dihydroisobenzo-furan-5-yl)piperazin-1-yl)methyl)-1H-pyra-zol-1-yl)benzo[d]oxazol-2(3H)-one], the IC50 is reported as 86 nM. `CNC(=O)OC1CCN(Cc2cnn(-c3cc(C)c(C#N)cn3)c2)CC1c1ccc2c(c1C)COC2=O` (single isomer, unassigned) [Example 258-I, 1-((1-(5-cyano-4-methylpyridin-2-yl)-1H-pyrazol-4-yl)methyl)-3-(4-methyl-1-oxo-1,3-dihydroisobenzofuran-5-yl)piperidin-4-yl methylcarbamate] showed an IC50 of 250 nM. Molecule `Cc1cc(-c2nnc(CN3CCN[C@H](c4ccc5c(c4C)COC5=O)C3)o2)ncc1C#N` [Example 13-I, (R)-4-methyl-6-(5-((3-(4-methyl-1-oxo-1,3-dihydroisobenzofuran-5-yl)piperazin-1-yl)methyl)-1,3,4-oxadiazol-2-yl)nicotinonitrile] has an IC50 of 110 nM. Molecule `Cc1cc(-n2cc(CN3CCN[C@H](c4ccc5c(c4C)COC5=O)C3)nn2)nc(C)c1C#N` [Example 186-I, (R)-2,4-dimethyl-6-(4-((3-(4-methyl-1-oxo-1,3-dihydroisobenzofuran-5-yl)piperazin-1-yl)methyl)-1H-1,2,3-triazol-1-yl)nicotinonitrile] has an IC50 of 18 nM. Molecule `COc1cc(-c2ncc(C(=O)N3CCO[C@H](c4ccc5c(c4C)COC5=O)C3)s2)ncc1C#N` [Example 34-I, (R)-4-methoxy-6-(5-(2-(4-methyl-1-oxo-1,3-dihydroisobenzofuran-5-yl)morpholine-4-carbonyl)thiazol-2-yl) nicotinonitrile] has an IC50 of 190 nM. `Cc1cc(-n2cc(CN3C[C@@H](c4ccc5c(c4C)COC5=O)NS3(=O)=O)cn2)ncc1C#N` [Example 119-I, (R)-4-methyl-6-(4-((4-(4-methyl-1-oxo-1,3-dihydroisobenzofuran-5-yl)-1,1-dioxido-1,2,5-thiadiazolidin-2-yl)methyl)-1H-pyrazol-1-yl)nicotinonitrile] showed an IC50 of 140 nM. For `Cc1c([C@@H]2CN(Cc3cnn(-c4ccc5oc(=O)n(C)c5c4)c3)CCN2)ccc2c1COC2=O` [Example 58-I, (R)-3-methyl-5-(4-((3-(4-methyl-1-oxo-1,3-dihydroisobenzofuran-5-yl)piperazin-1-yl)methyl)-1H-pyrazol-1-yl) benzo[d]oxazol-2(3H)-one], the IC50 was 60 nM. In the case of `Cc1c([C@@H]2CN(Cc3ccc(-n4cc(C(N)=O)cn4)nc3)CCN2)ccc2c1COC2=O` [Example 138-I, (R)-1-(5-((3-(4-methyl-1-oxo-1,3-dihydroisobenzofuran-5-yl)piperazin-1-yl)methyl)pyridin-2-yl)-1H-pyrazole-4-carboxamide], the IC50 is reported as 670 nM. Work on `Cc1cn(-c2ncc(CN3CCO[C@H](c4ccc5c(c4C)COC5=O)C3)cn2)cn1` [Example 224-I, (R)-4-methyl-5-(4-((2-(4-methyl-1H-imidazol-1-yl)pyrimidin-5-yl)methyl)morpholin-2-yl)isobenzofuran-1(3H)-one] yielded an IC50 of 27 nM. Molecule `COc1cc(-n2cc(CN3CC(c4ccc5c(c4C)COC5=O)NC(C(C)O)C3)cn2)ncc1C#N` (single isomer, unassigned) [Example 204-I, 6-(4-((3-(1-hydroxyethyl)-5-(4-methyl-1-oxo-1,3-dihydroisobenzofuran-5-yl)piperazin-1-yl)methyl)-1H-pyrazol-1-yl)-4-methoxynicotinonitrile] has an IC50 of 220 nM. `Cc1c([C@@H]2CN(Cc3cn(-c4ccc5oc(=O)n(C)c5c4)nn3)CC(=O)N2)ccc2c1COC2=O` [Example 72-I, (R)-3-methyl-5-(4-((3-(4-methyl-1-oxo-1,3-dihydroisobenzofuran-5-yl)-5-oxopiperazin-1-yl)methyl)-1H-1,2,3-triazol-1-yl)benzo[d] oxazol-2(3H)-one] gave an IC50 of 550 nM. For `Cc1c([C@@H]2CN(Cc3nnc(-c4ccc(C#N)cn4)o3)CCO2)ccc2c1COC2=O` [Example 12-I, (R)-6-(5-((2-(4-methyl-1-oxo-1,3-dihydroisobenzofuran-5-yl)morpholino)methyl)-1,3,4-oxadiazol-2-yl)nicotinonitrile], the IC50 was 530 nM. `COc1c(CN2C[C@@H](c3ccc4c(c3C)COC4=O)OC2=O)cnn1-c1cc(C)c(C#N)cn1` [Example 79-I, (R)-6-(5-methoxy-4-((5-(4-methyl-1-oxo-1,3-dihydroisobenzofuran-5-yl)-2-oxooxazolidin-3-yl)methyl)-1H-pyrazol-1-yl)-4-methyl-nicotinonitrile] gave an IC50 of 320 nM. In the case of `Cc1noc(-c2ccc(CN3CCN[C@H](c4ccc5c(c4C)COC5=O)C3)cn2)n1` [Example 264-I, (R)-4-methyl-5-(4-((6-(3-methyl-1,2,4-oxadiazol-5-yl)pyridin-3-yl)methyl)piperazin-2-yl)isobenzofuran-1(3H)-one], the IC50 is reported as 580 nM. `Cc1cc(-n2cc(CN3CC(=O)N(C)[C@H](c4ccc5c(c4C)COC5=O)C3)cn2)ncc1C#N` [Example 77-I, (R)-4-methyl-6-(4-((4-methyl-3-(4-methyl-1-oxo-1,3-dihydroisobenzo-furan-5-yl)-5-oxo-piperazin-1-yl)methyl)-1H-pyrazol-1-yl)nicotino-nitrile] was tested, and the IC50 was 820 nM. In the case of `Cc1c([C@@H]2CN(Cc3cnn(-c4ccsc4)c3)CCO2)ccc2c1COC2=O` [Example 38-I, (R)-4-methyl-5-(4-((1-(thiophen-3-yl)-1H-pyrazol-4-yl)methyl)morpholin-2-yl)isobenzo-furan-1(3H)-one], the IC50 is reported as 3400 nM. `Cc1cn(-c2ncc(CN3CCO[C@H](c4ccc5c(c4C)COC5=O)C3)s2)cn1` [Example 36-I, (R)-4-methyl-5-(4-((2-(4-methyl-1H-imidazol-1-yl)thiazol-5-yl)methyl)morpholin-2-yl)iso-benzofuran-1(3H)-one] showed an IC50 of 680 nM. `Cc1c([C@@H]2CN(Cc3ccc(-n4cnc(C#N)n4)nc3)CC(=O)N2)ccc2c1COC2=O` [Example 73-I, (R)-1-(5-((3-(4-methyl-1-oxo-1,3-dihydroiso-benzofuran-5-yl)-5-oxo-piperazin-1-yl)methyl)pyridin-2-yl)-1H-1,2,4-triazole-3-carbonitrile] was tested, and the IC50 was 150 nM. For `Cc1c([C@@H]2CN(Cc3cnn(-c4ccncc4)c3)CCO2)ccc2c1COC2=O` [Example 44-I, (R)-4-methyl-5-(4-((1-(pyridin-4-yl)-1H-pyrazol-4-yl)methyl)morpholin-2-yl)isobenzo-furan-1(3H)-one], the IC50 was 200 nM. With `Cc1cn(-c2ccc(CN3CC(=O)N[C@H](c4ccc5c(c4C)COC5=O)C3)cn2)cn1` [Example 76-I, (R)-6-(4-methyl-1-oxo-1,3-dihydroisobenzo-furan-5-yl)-4-((6-(4-methyl-1H-imidazol-1-yl)pyridin-3-yl)methyl) piperazin-2-one] the IC50 was 300 nM. `Cc1cc(N2CCCS2(=O)=O)cc(-n2cc(CN3C[C@@H](c4ccc5c(c4C)COC5=O)N[C@@H](C)C3)cn2)n1` [Example 253-I, 5-((2R,6S)-4-((1-(4-(1,1-dioxidoisothiazolidin-2-yl)-6-methylpyridin-2-yl)-1H-pyrazol-4-yl)methyl)-6-methylpiperazin-2-yl)-4-methylisobenzofuran-1(3H)-one] gave an IC50 of 400 nM.
